The source of these data is US6706740B2, “Fungicidal heterocyclic aromatic amides and their compositions, methods of use and preparation” (Dow AgroSciences LLC, priority 1999, dated 2004).

SMILES strings stand for the structures. Read-outs that look alike come from different tables or passages of the source.

Assay [1] has as its system Phytophthora infestans—PHYTIN. In words: whole plant or invertebrate. The note with it: Phytophthora, in Solanum lycopersicum, 24 h, read-out: PHYTIN in vivo 1 Day Protectant. The format is in vivo.
The test system of assay [2] is Stagonospora nodorum (Leptosphaeria nodorum—LEPTNO). In words: In vitro fungal growth inhibition, Stagonospora nodorum (LEPTNO). In kind it is cell-based. The following applies: Leptosphaeria, read-out: LEPTNO in vitro Growth Inhibition.
The subject of assay [3] is Rhizoctonia solani (RHIZSO). The assay is described as follows: microbe, parasite or virus in culture. The format is cell-based. The note with it: Rhizoctonia solani, read-out: RHIZSO in vitro Growth Inhibition.
Assay [4] relates to Erysiphe graminis—ERYSGT. In words: Powdery Mildew of Wheat, in vivo whole plant, 24 Hour Protectant. The following applies: Erysiphe, read-out: ERYSGT in vivo 1 Day Protectant.
In assay [5] the test system is Leptosphaeria nodorum—LEPTNO. In words: Glume Blotch of Wheat, in vivo whole plant, 24 Hour Protectant. The following applies: for pest or weed control at 100 ppm: Leptosphaeria, control of fungal infection vs untreated plants, read-out: LEPTNO in vivo 1 Day Protectant.
Assay [6] deals with Phytophthora infestans (PHYTIN). The assay is described as follows: microbe, parasite or virus in culture. The note with it: Phytophthora infestans, read-out: PHYTIN in vitro Growth Inhibition. The format is cell-based.
The test system of assay [7] is Mycosphaerella graminicola (Septoria tritici—SEPTTR). The assay is described as follows: In vitro fungal growth inhibition, Mycosphaerella graminicola (SEPTTR). The note with it: Zymoseptoria tritici, read-out: SEPTTR in vitro Growth Inhibition. In kind it is cell-based.
Assay [8] concerns Ustilago maydis (USTIMA). In words: microbe, parasite or virus in culture. In kind it is cell-based. The note with it: Mycosarcoma maydis, read-out: USTIMA in vitro Growth Inhibition.
Assay [9] has as its system Puccinia recondita—PUCCRT. The assay is described as follows: Brown Rust of Wheat, in vivo whole plant, 24 Hour Protectant. The following applies: for pest or weed control at 100 ppm: Puccinia, control of fungal infection vs untreated plants, read-out: PUCCRT in vivo 1 Day Protectant.
In assay [10] the test system is Magnaporthe grisea (Pyricularia oryzae—PYRIOR). In words: microbe, parasite or virus in culture. In kind it is cell-based. The note with it: Pyricularia oryzae, read-out: PYRIOR in vitro Growth Inhibition.
The subject of assay [11] is Septoria tritici—SEPTTR. In words: Leaf Blotch of Wheat, in vivo whole plant, 24 Hour Protectant. The note with it: for pest or weed control at 100 ppm: Zymoseptoria tritici, 24 h, control of fungal infection vs untreated plants, read-out: SEPTTR in vivo 1 Day Protectant.
[12] abbreviates: wheat plants sprayed at 100 ppm, inoculated after 24 hours, control of fungal infection vs untreated plants.
Where [13] appears, read: wheat plants sprayed at 100 ppm, inoculated after 24 hours.
Where [14] appears, read: 100 ppm spray, wheat, 24 hour protectant, % control of fungal infection vs untreated plants.
Where [15] appears, read: 100 ppm spray, wheat, 24 hour protectant.
The mark [16] stands for this setting: 100 ppm spray, 24 hour protectant, wheat.

The term inhibition denotes how much of the control response was suppressed. Regarding `COC(=O)C(COC(=O)C(C)c1ccccc1)NC(=O)c1nccc(OC)c1OC(C)=O` (stereo not drawn) [Compound 581], the pest or weed control at 100 ppm in assay [1] was less than 25%; in [4] (setting [12]), less than 25%; in assay [5] (setting [13]) it was 25 to 74%; in [9] (setting [13]) it was less than 25%; in [11] (setting [13]), 25 to 74%. Also, the inhibition at 25 ppm in assay [2] (25 ppm in the growth medium), in assay [3], in assay [6], in assay [7] (25 ppm in the growth medium), in assay [8] and in [10] was less than 80% throughout.

Turning to `COc1ccnc(C(=O)Nc2cccc(Sc3ccc(C(F)(F)F)cc3)c2)c1OC(C)=O` [Compound 710], the pest or weed control at 100 ppm in assay [1] and in [4] (setting [14]) was less than 25% in each case. In addition, the inhibition at 25 ppm in assay [2] (25 ppm in growth medium) was greater than 80%; in assay [3], less than 80%; in [6], less than 80%; in assay [7] (25 ppm in growth medium), greater than 80%; in [8], less than 80%; in assay [10] it was greater than 80%. The “LEPTNO in vivo 1 Day Protectant” value in assay [5] (setting [14]) is on record as “+ +”. In addition, the “PUCCRT in vivo 1 Day Protectant” value in assay [9] (setting [14]) is given as “+ +”. Also, in assay [11] (setting [14]), the “SEPTTR in vivo 1 Day Protectant” value is recorded as “+ +”.

Consider `COc1ccnc(C(=O)Nc2cccc(Oc3ccccc3C)c2)c1O` [Compound 412], for which the pest or weed control at 100 ppm in assay [1] was less than 25%; in assay [4] (100 ppm spray, wheat, 24 hour protectant, control of fungal infection vs untreated plants), less than 25%; in [5] (setting [15]) it was less than 25%; in assay [9] (setting [15]) it was 25 to 74%; in assay [11] (setting [15]) it was less than 25%. The inhibition at 25 ppm in assay [2] (25 ppm in growth medium) was greater than 80%; in assay [3] it was less than 80%; in assay [6], less than 80%; in assay [7] (25 ppm in growth medium), greater than 80%; in assay [8], less than 80%; in assay [10], greater than 80%.

In the case of `CC(NC(=O)c1ccncc1O)c1ccc(OC(F)(F)F)cc1` (stereo not drawn) [Compound 511], the pest or weed control at 100 ppm in [1], in assay [4] (setting [12]), in assay [5] (setting [13]), in assay [9] (setting [13]) and in assay [11] (setting [13]) was less than 25% each time. The inhibition at 25 ppm in assay [2] (25 ppm in the growth medium), in assay [3], in assay [6], in assay [7] (25 ppm in the growth medium), in assay [8] and in [10] was less than 80% throughout.

Consider `Cc1cc(C)c(C(=O)N[C@H]2COC(=O)[C@H](Cc3ccccc3)[C@@H](OC(=O)C(C)C)[C@H](C)OC2=O)c(O)n1` [Compound 529], for which the pest or weed control at 100 ppm in assay [1] was less than 25%; in assay [4] (setting [12]), less than 25%; in assay [5] (setting [13]), 25 to 74%; in assay [9] (setting [13]) it was 25 to 74%; in assay [11] (setting [13]) it was 25 to 74%. In addition, the inhibition at 25 ppm in assay [2] (25 ppm in the growth medium), in assay [3], in assay [6], in assay [7] (25 ppm in the growth medium), in assay [8] and in assay [10] was less than 80% throughout.

For the compound `COc1ccnc(C(=O)NC2CCN(C(=O)CCc3ccccc3)CC2)c1O` [Compound 309], the pest or weed control at 100 ppm is less than 25% in assay [1]; 25 to 74% in assay [4] (100 ppm spray, 24 hour protectant, wheat, control of fungal infection vs untreated plants); 25 to 74% in assay [5] (setting [16]); less than 25% in assay [9] (setting [16]); less than 25% in [11] (setting [16]). Moreover, the inhibition at 25 ppm in assay [2] (25 ppm in growth medium), in assay [3], in [6], in assay [7] (25 ppm in growth medium), in assay [8] and in assay [10] was less than 80% in each case.
